Experimental data: patent US20230132133A1, “METHODS AND COMPOSITIONS FOR THE TREATMENT OF C. DIFFICILE” (priority 2018, published 2023)
Converted amounts (≈) assume the structure as drawn.

Assays:
[1] = test system: B. amyloliquefaciens ART12; assay: Antibiotic MIC, VetMIC Lact-1 & Lact-2 panels; type: cell-based, Bacillus amyloliquefaciens; conditions: Bacillus amyloliquefaciens, ART12; average results from N= 6; 24 hr at 37° C.
Description: (§1) The wells of the prefabricated 96-well plates were filled with 100 μL of the final suspension. The plates were sealed with an […], Sigma Aldrich) sealing film (to facilitate growth of the aerobic Bacillus strains. The plates were then incubated for 24 hr at 37° C. The results are recorded after 24 hours as the lowest concentration of the antibiotic to inhibit visible growth. The prefabricated panels […], Uppsala, Sweden) comprising the antibiotics ampicillin, vancomycin, gentamicin, kanamycin, streptomycin, erythromycin, clindamycin, tetracycline, chloramphenicol, neomycin, penicillin, quinupristin-dalfopristin, linezolid, trimethoprim, ciprofloxacin and rifampicin were used.

[2] = test system: B. amyloliquefaciens ART24; assay: Antibiotic MIC, VetMIC Lact-1 & Lact-2 panels; type: cell-based, Bacillus amyloliquefaciens; conditions: Bacillus amyloliquefaciens, ART24; average results from N= 6; 24 hr at 37° C.
Description: as §1

[3] = test system: B. amyloliquefaciens ART4; assay: Antibiotic MIC, VetMIC Lact-1 & Lact-2 panels; type: cell-based, Bacillus amyloliquefaciens; conditions: Bacillus amyloliquefaciens, ART4; average results from N= 6; 24 hr at 37° C.
Description: as §1

[4] = test system: B. amyloliquefaciens ART24; assay: Antibiotic MIC following EFSA testing recommendations on lyophilized ART24 lots and cell banks; type: cell-based, Bacillus amyloliquefaciens; conditions: for MIC: Bacillus amyloliquefaciens, read-out: MIC for ART24
From the text: The minimum inhibitory concentration (MIC) of the listed antimicrobials is expressed as µg/mL.

[5] = test system: B. amyloliquefaciens ART12; assay: MIC of metronidazole and fidaxomicin, CLSI standard method; type: cell-based; conditions: Bacillus amyloliquefaciens, triplicates, 16 hours, read-out: MIC against ART12
Description: (§2) Briefly, minimum inhibitory concentration assays were carried out in triplicate using 96-well plates (Sarstedt). Two-fold serial dilutions from an initial concentration of 512 µg/mL of each antibiotic were carried out in BHI broth (Merck). An overnight of the target strain was subcultured and incubated to an OD600 nm of 0.5 before being diluted to give a final inoculum of 10^5 cfu/ml in 200 µL and added to the antibiotic preparations. The plates were incubated at an appropriate temperature and inspected after 16 hours. The MIC was determined as the lowest concentration at which no growth was visible.

[6] = test system: B. amyloliquefaciens ART24; assay: as above; type: cell-based; conditions: Bacillus amyloliquefaciens, triplicates, 16 hours, read-out: MIC against ART24
Description: as §2

[7] = test system: B. amyloliquefaciens ART4; assay: as above; type: cell-based; conditions: Bacillus amyloliquefaciens, triplicates, 16 hours, read-out: MIC against ART4
Description: as §2

## CC1(C)S[C@@H]2[C@H](NC(=O)[C@H](N)c3ccccc3)C(=O)N2[C@H]1C(=O)O [Ampicillin]
[1]
  MIC: 0.25 µg/mL (≈ 0.715 µM)
[2]
  MIC: 0.25 µg/mL (≈ 0.715 µM)
[3]
  MIC: 0.12 µg/mL (≈ 0.343 µM)
[4]; ART24, source CO-33-12A2
  MIC: ≤ 0.03 µg/mL
[4]; ART24, source CO-33 ART 24 BHI
  MIC: ≤ 0.03 µg/mL
[4]; ART24, source CO-33 ART 024 S
  MIC: ≤ 0.03 µg/mL
[4]; ART24, source YD CO-33-10A2
  MIC: ≤ 0.03 µg/mL
[4]; source CO-33-12A2
  MIC interpretation for ART24: S
[4]; source CO-33 ART 24 BHI
  MIC interpretation for ART24: S
[4]; source CO-33 ART 024 S
  MIC interpretation for ART24: S
[4]; source YD CO-33-10A2
  MIC interpretation for ART24: S

## O=C(N[C@H](CO)[C@H](O)c1ccc([N+](=O)[O-])cc1)C(Cl)Cl [Chloramphenicol]
[1]
  MIC: 4 µg/mL (≈ 12.4 µM)
[2]
  MIC: 4 µg/mL (≈ 12.4 µM)
[3]
  MIC: 2 µg/mL (≈ 6.19 µM)
[4]; ART24, source CO-33-12A2
  MIC: 2 µg/mL (≈ 6.19 µM)
[4]; ART24, source CO-33 ART 24 BHI
  MIC: 2 µg/mL (≈ 6.19 µM)
[4]; ART24, source CO-33 ART 024 S
  MIC: 2 µg/mL (≈ 6.19 µM)
[4]; ART24, source YD CO-33-10A2
  MIC: 2 µg/mL (≈ 6.19 µM)
[4]; source CO-33-12A2
  MIC interpretation for ART24: S
[4]; source CO-33 ART 24 BHI
  MIC interpretation for ART24: S
[4]; source CO-33 ART 024 S
  MIC interpretation for ART24: S
[4]; source YD CO-33-10A2
  MIC interpretation for ART24: S

## O=C(O)c1cn(C2CC2)c2cc(N3CCNCC3)c(F)cc2c1=O [Ciprofloxacin]
[1]
  MIC: ≤ 0.25 µg/mL
[2]
  MIC: ≤ 0.25 µg/mL
[3]
  MIC: ≤ 0.25 µg/mL
[4]; ART24, source CO-33-12A2
  MIC: ≤ 0.03 µg/mL
[4]; ART24, source CO-33 ART 24 BHI
  MIC: ≤ 0.03 µg/mL
[4]; ART24, source CO-33 ART 024 S
  MIC: ≤ 0.03 µg/mL
[4]; ART24, source YD CO-33-10A2
  MIC: ≤ 0.03 µg/mL
[4]; source CO-33-12A2
  MIC interpretation for ART24: S
[4]; source CO-33 ART 24 BHI
  MIC interpretation for ART24: S
[4]; source CO-33 ART 024 S
  MIC interpretation for ART24: S
[4]; source YD CO-33-10A2
  MIC interpretation for ART24: S

## CCC[C@@H]1C[C@@H](C(=O)N[C@@H]([C@H]2O[C@H](SC)[C@H](O)[C@@H](O)[C@H]2O)[C@H](C)Cl)N(C)C1 [Clindamycin]
[1]
  MIC: 1 µg/mL (≈ 2.35 µM)
[2]
  MIC: 0.5 to 1 µg/mL (≈ 1.18 to 2.35 µM)
[3]
  MIC: 0.5 µg/mL (≈ 1.18 µM)
[4]; ART24, source CO-33-12A2
  MIC: 0.25 µg/mL (≈ 0.588 µM)
[4]; ART24, source CO-33 ART 24 BHI
  MIC: 0.25 µg/mL (≈ 0.588 µM)
[4]; ART24, source CO-33 ART 024 S
  MIC: 0.25 µg/mL (≈ 0.588 µM)
[4]; ART24, source YD CO-33-10A2
  MIC: 0.12 µg/mL (≈ 0.282 µM)
[4]; source CO-33-12A2
  MIC interpretation for ART24: S
[4]; source CO-33 ART 24 BHI
  MIC interpretation for ART24: S
[4]; source CO-33 ART 024 S
  MIC interpretation for ART24: S
[4]; source YD CO-33-10A2
  MIC interpretation for ART24: S

## CC[C@H]1OC(=O)[C@H](C)[C@@H](O[C@H]2C[C@@](C)(OC)[C@@H](O)[C@H](C)O2)[C@H](C)[C@@H](O[C@@H]2O[C@H](C)C[C@H](N(C)C)[C@H]2O)[C@](C)(O)C[C@@H](C)C(=O)[C@H](C)[C@@H](O)[C@]1(C)O [Erythromycin]
[1]
  MIC: 0.12 µg/mL (≈ 0.164 µM)
[2]
  MIC: 0.12 µg/mL (≈ 0.164 µM)
[3]
  MIC: 0.12 µg/mL (≈ 0.164 µM)
[4]; ART24, source CO-33-12A2
  MIC: 0.06 µg/mL (≈ 0.0818 µM)
[4]; ART24, source CO-33 ART 24 BHI
  MIC: 0.12 µg/mL (≈ 0.164 µM)
[4]; ART24, source CO-33 ART 024 S
  MIC: 0.12 µg/mL (≈ 0.164 µM)
[4]; ART24, source YD CO-33-10A2
  MIC: 0.06 µg/mL (≈ 0.0818 µM)
[4]; source CO-33-12A2
  MIC interpretation for ART24: S
[4]; source CO-33 ART 24 BHI
  MIC interpretation for ART24: S
[4]; source CO-33 ART 024 S
  MIC interpretation for ART24: S
[4]; source YD CO-33-10A2
  MIC interpretation for ART24: S

## CCc1c(Cl)c(O)c(Cl)c(O)c1C(=O)O[C@H]1[C@H](O)[C@H](OC)[C@H](OC/C2=C\C=C\C[C@H](O)/C(C)=C/[C@H](CC)[C@@H](O[C@@H]3OC(C)(C)[C@@H](OC(=O)C(C)C)[C@H](O)[C@@H]3O)/C(C)=C/C(C)=C/C[C@@H]([C@@H](C)O)OC2=O)O[C@@H]1C [Fidaxomicin, fidaxomicin]
[4]; ART24, source CO-33-12A2
  MIC: 4 µg/mL (≈ 3.78 µM)
[4]; ART24, source CO-33 ART 24 BHI
  MIC: 4 µg/mL (≈ 3.78 µM)
[4]; ART24, source CO-33 ART 024 S
  MIC: 4 µg/mL (≈ 3.78 µM)
[4]; ART24, source YD CO-33-10A2
  MIC: 2 µg/mL (≈ 1.89 µM)
[5]
  MIC: < 1 µg/mL
[6]
  MIC: 2 µg/mL
[7]
  MIC: < 1 µg/mL

## NC[C@H]1O[C@H](O[C@H]2[C@H](O)[C@@H](O[C@H]3O[C@H](CO)[C@@H](O)[C@H](N)[C@H]3O)[C@H](N)C[C@@H]2N)[C@H](O)[C@@H](O)[C@@H]1O [Kanamycin]
[1]
  MIC: ≤ 2 µg/mL
[2]
  MIC: ≤ 2 µg/mL
[3]
  MIC: ≤ 2 µg/mL
[4]; ART24, source CO-33-12A2
  MIC: ≤ 0.5 µg/mL
[4]; ART24, source CO-33 ART 24 BHI
  MIC: ≤ 0.5 µg/mL
[4]; ART24, source CO-33 ART 024 S
  MIC: ≤ 0.5 µg/mL
[4]; ART24, source YD CO-33-10A2
  MIC: ≤ 0.5 µg/mL
[4]; source CO-33-12A2
  MIC interpretation for ART24: S
[4]; source CO-33 ART 24 BHI
  MIC interpretation for ART24: S
[4]; source CO-33 ART 024 S
  MIC interpretation for ART24: S
[4]; source YD CO-33-10A2
  MIC interpretation for ART24: S

## CC(=O)NC[C@H]1CN(c2ccc(N3CCOCC3)c(F)c2)C(=O)O1 [Linezolid]
[1]
  MIC: 0.5 µg/mL (≈ 1.48 µM)
[2]
  MIC: 0.5 µg/mL (≈ 1.48 µM)
[3]
  MIC: 0.5 µg/mL (≈ 1.48 µM)
[4]; ART24, source CO-33-12A2
  MIC: 0.5 µg/mL (≈ 1.48 µM)
[4]; ART24, source CO-33 ART 24 BHI
  MIC: 0.5 µg/mL (≈ 1.48 µM)
[4]; ART24, source CO-33 ART 024 S
  MIC: 0.5 µg/mL (≈ 1.48 µM)
[4]; ART24, source YD CO-33-10A2
  MIC: 0.25 µg/mL (≈ 0.741 µM)
